Consider 103 compounds from ChEMBL document CHEMBL3507680, “University of Dundee, Gates Library screen for HepG2 cell viability”.

The nature of the series: Human HepG2 cell viability assay in 384 well format. The arrangement: dose 125 nL, time 70.5 hour; cytotoxicity at 70.5 h: concentration not given beside the values. To be noted: HepG2 cells, read-out: Inhibition. The series is classed as toxicity, cell-based.
Consider `O=C(Cc1cccnc1)N1CCCC(c2cc(C(F)(F)F)[nH]n2)C1` (stereo not drawn), for which the cytotoxicity at 70.5 h was -2.42%. `FC(F)(F)c1cc(C2CCCN(Cc3cccnc3)C2)n[nH]1` (stereo not drawn): the cytotoxicity at 70.5 h was determined as 9.85%. With `Cc1ccc(CCCC(=O)N2CC(=O)Nc3cccnc32)s1` the figure was -11.1%; with `CN(Cc1csc2ccccc12)C(=O)NC1CCS(=O)(=O)C1` (stereo not drawn), -7.9%; with `CC(NCc1nnc2n1CCCC2)c1nc(-c2cccs2)no1` (stereo not drawn), 2.78%. As for `Cc1noc(CCCC(=O)N2CSCC2C(=O)NCC2CC2)n1` (stereo not drawn), the figure is -7.96%. On to `FC(F)(F)c1cc(C2CCCN(Cc3ccncc3)C2)n[nH]1` (stereo not drawn), for which the cytotoxicity at 70.5 h is -1.55%. `Cc1ncc(CNC(CCO)C2CCCCC2)s1` (stereo not drawn): the cytotoxicity at 70.5 h was determined as 1.31%. On to `Cc1ccc(C)c(S(=O)(=O)CCN2CCCC2Cn2cccn2)c1` (stereo not drawn), for which the cytotoxicity at 70.5 h was -7.12%. With `CCc1nnc2n1CCN(C(=O)CCOc1ccc(C)cc1C)C2` the figure was -4.53%; with `CCc1nnc2n1CCN(C(=O)CCOc1cc(C)ccc1C)C2`, -5.39%; with `Cc1nc(C(=O)N(CC2CCCO2)c2ccncc2)cs1` (stereo not drawn), -16.6%.

Regarding `CC1CCCN(C(=O)c2ccc(N(C)Cc3cnn(C)c3)nc2)C1` (stereo not drawn), the cytotoxicity at 70.5 h was 20.1%.

As for `CC1CN(c2ccc(NC(=O)Cn3cccn3)cc2)CCO1` (stereo not drawn), the cytotoxicity at 70.5 h was -5.08%. As for `CC(C)c1n[nH]c(C2CN(C(=O)COCC(F)(F)F)CCO2)n1` (stereo not drawn), the cytotoxicity at 70.5 h is -12.9%.

In the case of `COc1ccc(CCCC(=O)NCc2c(C)noc2C)cc1F`, the cytotoxicity at 70.5 h worked out at 20%. With `O=C(NCCNC(=O)c1ccc(Cl)cc1)NCCn1cccc1`, the cytotoxicity at 70.5 h is -4.35%. Consider `Cc1c(CN2CCCC(C(=O)Nc3ccccc3)C2)cc(C#N)n1C` (stereo not drawn), for which the cytotoxicity at 70.5 h is -2.58%. With `CCOc1cc(CNCC2CN(C3CC3)CCO2)ccc1OC` (stereo not drawn), the cytotoxicity at 70.5 h was -8.19%. For the compound `COc1ccc(CNCC2CN(C3CC3)CCO2)cc1F` (stereo not drawn), the cytotoxicity at 70.5 h is -8.08%. `CN(C)C1CCCN(C(=O)NCCc2cc(F)ccc2F)C1` (stereo not drawn): the cytotoxicity at 70.5 h turned out to be 23.5%. As for `CC(CC(=O)N1CCCN(Cc2nccn2C)CC1)n1cccc1` (stereo not drawn), the figure is -12.4%. `N#Cc1cccnc1N1CCC(OCc2ccccc2)CC1`: the cytotoxicity at 70.5 h was -8.71%. Regarding `Cc1ccc(CCC(=O)N2CCn3c(nnc3C(C)C)C2)cc1Cl`, the cytotoxicity at 70.5 h turned out to be 24.9%.

Consider `Cn1cnnc1C1CCN(C(=O)CCCOCc2ccccc2)CC1`, for which the cytotoxicity at 70.5 h is -11.3%. As for `CC(C)c1n[nH]c(C2CN(C(=O)COc3ccc(F)cc3)CCO2)n1` (stereo not drawn), the cytotoxicity at 70.5 h is -8.14%.

For `Cc1ccc(C)c(S(=O)(=O)CCN2CCCC2Cn2cncn2)c1` (stereo not drawn), the cytotoxicity at 70.5 h was -14.3%. `CCc1nc(CN2CCCC(N(C)CCn3cncn3)C2)no1` (stereo not drawn): the cytotoxicity at 70.5 h was -9.76%.

On to `CCc1nc(CN2CCCC(NCCn3cncn3)C2)no1` (stereo not drawn), for which the cytotoxicity at 70.5 h was -8.1%. With `O=C(CNC(=O)c1ccoc1)NCCOc1ccc2c(c1)CCC2` the figure was -6.52%; with `Cc1cc(N2CCc3c(ncn3C3CC3)C2)nc(N)n1`, -7.99%.

As to `Cc1c(Cl)cccc1NC(=O)CCNc1ccc(C#N)cn1`, the cytotoxicity at 70.5 h was -6.94%. Regarding `OC(CN1CCN(CC2CC2)CC1)c1ccc(Br)cc1` (stereo not drawn), the cytotoxicity at 70.5 h is -2.6%. Regarding `CS(=O)(=O)NC1CCN(C(=O)c2ccc(Br)o2)C1` (stereo not drawn), the cytotoxicity at 70.5 h is -5.52%. With `CS(=O)(=O)NC1CCN(C(=O)c2ccc(Br)cc2)C1` (stereo not drawn) the figure was -7.16%; with `COc1cc(Cl)c(C)cc1NC(=O)CCNc1ccc(C#N)cn1`, 9.88%; with `Cc1nsc(N2CCN(CC(=O)NCc3cccnc3)CC2)n1`, -0.83%. As for `O=C(CCc1ccco1)NCC1CCCN1c1cccnn1` (stereo not drawn), the cytotoxicity at 70.5 h is -2.58%. For `Cn1cnnc1CNC(=O)Nc1ccc(OC2CCC2)c(F)c1`, the cytotoxicity at 70.5 h is -4.19%.

As for `CSc1ccc(NC(=O)NCc2nncn2C2CC2)cc1F`, the cytotoxicity at 70.5 h was 2.39%. As for `Cc1csc(CCCNC(=O)NC2CC(=O)N(C(C)(C)C)C2)n1` (stereo not drawn), the cytotoxicity at 70.5 h is -2.05%. For the compound `Cc1nc(C)c(CCNC(=O)NC2CC(=O)N(C(C)(C)C)C2)s1` (stereo not drawn), the cytotoxicity at 70.5 h is -5.16%. As for `O=C(c1ccc2nncn2c1)N1CCCC1c1noc(C2CC2)n1` (stereo not drawn), the figure is -7.81%; as for `c1cnnc(N2CCCC2CNCCc2cccs2)c1` (stereo not drawn), -7.61%. With `COC(=O)N1CCC(Nc2cccc(F)c2C(C)=O)C1` (stereo not drawn), the cytotoxicity at 70.5 h is -9.32%.

For `CCC(C)NC(=O)c1ccc(CNC(=O)COC)cc1` (stereo not drawn), the cytotoxicity at 70.5 h was -9.97%. Take `Cc1ccc(C(=O)NCCNC(=O)c2cncnc2C(C)C)cc1F`: the cytotoxicity at 70.5 h is -7.29%. For `CC(C)(C)OC(=O)NCC1CCN(C(=O)c2ccccc2O)CC1`, the cytotoxicity at 70.5 h is -7.62%. As for `Cc1c(F)cc(C(=O)NCC(F)(F)F)cc1NCC(=O)N(C)C`, the figure is 10.3%. With `COC(=O)CCNC(=O)c1ccc(NC(=O)N(C)CC(C)C)cc1` the figure was 12.2%. For the compound `CC(C)C(=O)NCc1ccccc1NS(=O)(=O)c1ccccc1`, the cytotoxicity at 70.5 h is -3.22%. As to `COc1ccc(OC)c(C(O)CN2CCN(C3CCCC3)CC2)c1` (stereo not drawn), the cytotoxicity at 70.5 h was -7.66%.

In the case of `COC(=O)C1CN(CC(=O)Nc2cccc(OC)c2)c2ccccc21` (stereo not drawn), the cytotoxicity at 70.5 h is -9.39%. Consider `COC(=O)N1CCC(Nc2cccc(F)c2C#N)CC1`, for which the cytotoxicity at 70.5 h is -3.28%.

In the case of `CC(=O)c1c(F)cccc1NC1CCN(C(=O)CC(C)C)CC1`, the cytotoxicity at 70.5 h came out at 12.4%. With `Cc1ccc(O)c(C(=O)N2CCC(CNC(=O)OC(C)(C)C)C2)c1` (stereo not drawn) the figure was -7.45%; with `CN(CCc1ccncc1)Cc1nccn1Cc1ccccc1`, 8.96%; with `CCCNC(=O)NCc1ccccc1NS(=O)(=O)c1ccccc1`, -0.797%. For the compound `CC(=O)c1c(F)cccc1NC1CCN(S(=O)(=O)C2CC2)CC1`, the cytotoxicity at 70.5 h is -6.69%.

Turning to `O=C(Nc1cnc(C2CC2)nc1)N1CCCC1`, the cytotoxicity at 70.5 h is -1.33%. `O=C(Nc1cnc(C2CC2)nc1)N1CCC(CN2CCCC2)C1` (stereo not drawn): the cytotoxicity at 70.5 h is 17.5%.

Take `CCC(C)(NCC(=O)OC)c1nccs1` (stereo not drawn): the cytotoxicity at 70.5 h is -2.64%. Take `CCC(C)(NCC(N)=O)c1nccs1` (stereo not drawn): the cytotoxicity at 70.5 h is -4.9%.

As for `CCNC(=O)NC(=O)CNC(C)(CC)c1nc(C)cs1` (stereo not drawn), the cytotoxicity at 70.5 h is -4.63%. For the compound `COCc1ccccc1C(=O)N1CCC(CNC(=O)OC(C)(C)C)C1` (stereo not drawn), the cytotoxicity at 70.5 h is -6.54%.

Consider `CC(C)c1nccn1C1CCCN(C(=O)c2ccc(=O)n(C)n2)C1` (stereo not drawn), for which the cytotoxicity at 70.5 h is -8.03%. As to `CCNS(=O)(=O)C1CCN(C(=O)c2ccc(CC)o2)C1` (stereo not drawn), the cytotoxicity at 70.5 h is -9.53%.

Take `Cc1ccc(CNC(=O)N2CCOCC2C2CC2)cc1F` (stereo not drawn): the cytotoxicity at 70.5 h is -8.34%.

With `NC(=O)CN1CCC(NC2CSCCc3ccccc32)CC1` (stereo not drawn), the cytotoxicity at 70.5 h is 5.08%. For the compound `CS(=O)(=O)NCCNC(=O)C1(c2ccc(F)cc2)CC1`, the cytotoxicity at 70.5 h was -0.0991%.

For the compound `O=S(=O)(NCCN1CCOCC1)c1cncc(Cl)c1`, the cytotoxicity at 70.5 h came to 4.99%. In the case of `NC(=O)C1CN(c2ccc3c(Cl)ccnc3c2F)CCO1` (stereo not drawn), the cytotoxicity at 70.5 h was -7.96%.

As for `COc1ncnc(N)c1CNCCOc1ccccc1Cl`, the cytotoxicity at 70.5 h is -5.86%. For the compound `C[C@@H]1CN(c2ccc3c(Cl)ccnc3c2F)CC(C(N)=O)O1` (stereo partly drawn), the cytotoxicity at 70.5 h was -4.78%. In the case of `CS(=O)(=O)CCOCCNc1ccc(C(F)(F)F)cc1C#N`, the cytotoxicity at 70.5 h was -3.49%. For the compound `CCOc1cccc(COC(=O)c2ccc(F)cn2)n1`, the cytotoxicity at 70.5 h is -2.51%.

`CC1CCN(C)c2ccccc2N1C(=O)c1ccn(C)c(=O)c1` (stereo not drawn): the cytotoxicity at 70.5 h is -6.59%.

Take `CCc1cc(C)nc(N2CCN(C(C)c3nc(C)no3)CC2)n1` (stereo not drawn): the cytotoxicity at 70.5 h is -7.01%. In the case of `CN(C)c1ccnc(N2CCC(NCCOc3ccccc3)CC2)n1`, the cytotoxicity at 70.5 h is 19.6%. Regarding `Cc1cccc(C(=O)Nc2cccc3c2CCCC3)n1`, the cytotoxicity at 70.5 h was -1.46%. As for `CCOC(=O)c1nc(CN2CCN(C(C)C(=O)NC3CC3)CC2)cs1` (stereo not drawn), the cytotoxicity at 70.5 h is -9.09%.

As for `Cc1ncc2c(n1)CN(C(C(N)=O)c1ccccc1)CC2` (stereo not drawn), the cytotoxicity at 70.5 h was -7.87%. As for `O=S(=O)(CCCS(=O)(=O)c1ccc2c(c1)OCCCO2)c1ccccc1`, the figure is -7.8%; as for `COc1ccc(F)cc1CSCC(=O)N(CCC#N)CCC#N`, -3.2%. Turning to `c1ccc(OCCNC2CCN(c3ncccn3)CC2)cc1`, the cytotoxicity at 70.5 h amounted to 2.01%. As for `CS(=O)(=O)CCCNC(=O)NC1CC(c2cccc(Cl)c2)C1` (stereo not drawn), the cytotoxicity at 70.5 h was -3.19%. Take `COCC(=O)NC1CCCN(c2ccc(C)cc2)C1=O` (stereo not drawn): the cytotoxicity at 70.5 h is -0.459%.

For the compound `O=C(Nc1ccccc1OC1CCOC1)c1cc[nH]n1` (stereo not drawn), the cytotoxicity at 70.5 h worked out at 16.6%. In the case of `O=S1(=O)CCC(N2CCN(c3cc(C(F)(F)F)ccn3)CC2)C1` (stereo not drawn), the cytotoxicity at 70.5 h is 1.03%. Turning to `COCCN(C(=O)c1c[nH]c2ncccc12)C1CCCC1`, the cytotoxicity at 70.5 h came to 0.976%. As for `Cc1cnn(-c2cccc(N3CCCCC3)n2)c1`, the figure is 15.7%; as for `COC(=O)c1cnc(C(=O)N(c2ccc(OC)c(F)c2)C(C)C)cn1`, 0.246%; as for `Cc1ccc(O)c(C(=O)N2CCCC2c2nncn2CC(C)C)c1` (stereo not drawn), -0.402%. As for `Cc1ccc(C(=O)Nc2cccc3c2C(=O)NC3)c(C)n1`, the figure is 2.51%; as for `CCOCc1ccccc1NC(=O)NCC(C)(O)c1cc(C)oc1C` (stereo not drawn), -1.67%. As for `COc1ccc2cc(CN(C)C(C)c3nc(C4CC4)no3)ccc2c1` (stereo not drawn), the figure is -0.253%; as for `CC(c1nc(C2CC2)no1)N(C)Cc1ccc(Cl)cc1` (stereo not drawn), -3.08%. Take `CC(c1nc(C2CC2)no1)N(C)Cc1ccc2c(c1)OCCO2` (stereo not drawn): the cytotoxicity at 70.5 h was -0.549%.

Turning to `CC(C)Cn1cnnc1C1CCCN1C(=O)c1ccc(F)cc1F` (stereo not drawn), the cytotoxicity at 70.5 h was -2.82%. Take `COc1cc(F)ccc1N(C)Cc1ccccn1`: the cytotoxicity at 70.5 h is -1.59%.

For the compound `CCNC(=O)CN(CC)C(=O)Cc1csc(C(C)C)n1`, the cytotoxicity at 70.5 h was -1.29%. Take `COc1cccc2c1N(Cc1noc(C3CC3)n1)CCC2`: the cytotoxicity at 70.5 h turned out to be 39.7%. Take `CC(C)(N)c1nc(C(F)F)cc(=O)[nH]1`: the cytotoxicity at 70.5 h was -6.3%.
